{"source": "patent US8212058B2", "about": "“Fluorescent photoprobe for the imaging of endothelin receptors” (Universitatskilinikum Munster, priority 2005, dated 2012)", "key": {"[1]": {"system": "ETA receptor on MCF-7 human breast adenocarcinoma cells", "assay": "In vitro cell binding assay by fluorescence microscopy, MCF-7 cells", "conditions": "for cellular fluorescence signal (fluorescence microscopy): 45 min at 4° C., nmol amounts per well", "quoted_text": "Human breast cancer cell line MCF-7 (ATCC-No. HTB-22) was cultured in RPMI 1640 (Invitrogen Corporation, San Diego, USA) supplemented with 10% fetal calf serum, penicillin and streptomycin. Cells were grown routinely in a monolayer culture at 37° C. in a 5% CO2 humidified air atmosphere. Antibodies were murine IgGs and specific for the endothelin A receptor.\nCells were seeded in 4-well plates (Nunc, Wiesbaden) and incubated in culture medium (0.5 ml/well) overnight. For binding studies cells were washed twice with PBS and resuspended in 150 μl binding-buffer (20 mM HEPES in PBS with Ca^2+/Mg^2+, 0.2% BSA, 0.1% Glucose, pH 7.4). […] After an incubation period of 45 min at 4° C. cells were washed twice with PBS and were resuspended in binding buffer. For competition binding studies free ETAR antagonist (final amount 50 nmol) or ETAR antibodies (1.3 μg) were added to each well for 45 min at 4° C. Cells could be directly visualized by fluorescence microscopy (40× and 60× objective, Nikon TE 2000-S, Nikon-Düsseldorf). The microscope was equipped with a mercury vapour lamp (100 W), 620/775 nm and 545/675 nm (excitation/emission) filters (AHF Analysentechnik, Tübingen), a Nikon DXM1200F camera and ACT1/DXM1200F software (Nikon, Japan).\nBinding of the labelled antagonist could be directly analyzed by fluorescence microscopy.\n(§1) Cell binding assays. Cells (HT-1080 fibrosarcomas, MDA-MB435 ductal carcinomas, MCF-7 adenocarcinomas) were seeded in 4-well plates (Nunc GmbH & Co. KG, Wiesbaden, Germany) and incubated in culture medium (0.5 ml/well) overnight. For binding studies cells were washed twice with PBS and resuspended in 150 μl binding buffer (20 mM HEPES in PBS with Ca^2+/Mg^2+, 0.2% BSA, 0.1% Glucose, pH 7.4). […] After an incubation period of 45 min at 4° C. cells were washed twice with PBS and were resuspended in binding buffer. […] Cells could be directly visualised by fluorescence microscopy (40× objective, Nikon TE 2000-S, Nikon-Düsseldorf, Germany). The microscope was equipped with a mercury vapour lamp (100 W), 620/775 nm and 545/675 nm (excitation/emission) filters (AHF Analysentechnik, Tbingen, Germany), a Nikon DXM1200F camera and ACT1/DXM1200F software (Nikon, Japan).\n(§2) In vitro cell binding assays. […] Binding of the labelled antagonist could be directly analysed by fluorescence microscopy."}, "[2]": {"system": "ETAR in MCF-7 tumor xenografts", "assay": "In vivo FMT/FRI imaging of MCF-7 tumor xenografts", "design": "species or system mice"}, "[3]": {"system": "ETA-negative MDA-MB-435 human breast carcinoma cells", "assay": "In vitro cell binding assay by fluorescence microscopy, MDA-MB-435 cells", "assay_type": "cell-based", "conditions": "45 min at 4° C.", "excerpt": "In vitro cell binding assays."}, "[4]": {"biological_target": "T1, ETAR in MDA-MB-435 tumor xenografts (Mus musculus, UniProt Q61614)", "T1 construct": "from tissue; host or cells: MDA-MB-435 tumour xenografts in mice (host-derived cells, e.g. endothelial)", "T1 sequence (Q61614 21-427)": "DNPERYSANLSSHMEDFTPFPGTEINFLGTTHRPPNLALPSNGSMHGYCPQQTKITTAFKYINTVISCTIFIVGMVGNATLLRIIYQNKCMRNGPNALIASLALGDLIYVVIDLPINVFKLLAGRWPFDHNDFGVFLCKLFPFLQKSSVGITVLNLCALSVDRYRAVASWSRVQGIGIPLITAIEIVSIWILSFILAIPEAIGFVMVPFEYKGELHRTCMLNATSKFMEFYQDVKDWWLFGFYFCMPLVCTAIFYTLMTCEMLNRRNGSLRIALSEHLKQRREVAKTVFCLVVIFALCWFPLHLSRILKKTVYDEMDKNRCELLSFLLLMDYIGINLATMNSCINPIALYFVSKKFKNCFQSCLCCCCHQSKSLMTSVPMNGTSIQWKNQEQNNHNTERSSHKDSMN", "assay": "In vivo FMT/FRI imaging of MDA-MB-435 murine xenograft models", "design": "species or system mice", "excerpt": "FIG. 7: 3D-FMTexamination of MDA-MB-435 murine xenograft models."}, "[5]": {"biological_target": "T2, ETA receptor on HT-1080 human fibrosarcoma cells (Homo sapiens, UniProt P25101)", "T2 construct": "The highest amount of protein is found in human fibrosarcoma cells HT-1080; host or cells: HT-1080", "T2 sequence (P25101 21-427)": "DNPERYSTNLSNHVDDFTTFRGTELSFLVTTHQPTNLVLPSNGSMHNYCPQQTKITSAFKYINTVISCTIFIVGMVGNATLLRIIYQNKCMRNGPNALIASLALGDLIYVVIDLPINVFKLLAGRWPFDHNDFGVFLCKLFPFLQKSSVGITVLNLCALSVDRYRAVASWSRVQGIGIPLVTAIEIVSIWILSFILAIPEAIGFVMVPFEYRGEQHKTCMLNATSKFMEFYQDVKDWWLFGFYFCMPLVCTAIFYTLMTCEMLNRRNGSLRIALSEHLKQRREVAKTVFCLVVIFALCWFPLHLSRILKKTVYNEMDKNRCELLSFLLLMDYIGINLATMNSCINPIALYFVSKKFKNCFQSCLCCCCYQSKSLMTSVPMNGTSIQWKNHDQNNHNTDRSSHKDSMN", "assay": "In vitro cell binding assay by fluorescence microscopy, HT-1080 cells", "assay_type": "cell-based", "conditions": "for cellular fluorescence signal (fluorescence microscopy): HT-1080 cells, 45 min at 4° C.", "quoted_text": "Cell lines and reagents. Human breast adenocarcinoma cell line MCF-7 (ATCC-No. HTB-22), MDA-MB-435 human breast carcinoma cells (ATCC-No. HTB-123) and HT-1080 human fibrosarcoma cells (ATCC-No. CCL-121) were cultured in RPMI 1640 (Invitrogen Corporation, San Diego, USA) supplemented with 10% fetal calf serum, penicillin and streptomycin. Cells were grown routinely in a monolayer culture at 37° C. in a 5% CO2 humidified air atmosphere.\nas §1, §2"}, "[6]": {"biological_target": "endothelin receptors", "conditions": "literature value printed for comparison (lit.; ref. 37); cited from earlier work"}, "[7]": {"biological_target": "T3, myocardial ETAR (Mus musculus, UniProt Q61614)", "T3 construct": "from tissue; host or cells: mouse myocardium, in vivo", "T3 sequence (Q61614 21-427)": "T1 sequence (Q61614 21-427)", "assay": "In vivo FRI imaging of myocardial ETAR expression", "conditions": "mice, pre-dosing with PD 156707", "protocol": "FIG. 6: In vivo application of the targeted fluorophore for imaging of myocardial ETAR—expression. Mice were injected with the targeted fluorophore with (middle) and without (right) pre-dosing with PD 156707. The left speciment is a saline injected control."}, "[8]": {"biological_target": "endothelin receptors", "assay": "Competition binding studies with [125I]ET-1 on mouse ventricular membrane preparations", "conditions": "read-out: dissociation constant KD; Scatchard transformation of saturation data, mouse ventricular membranes", "quoted_text": "Microsomes were prepared by homogenizing ventricles from DBA mice at 4° C. for 90 seconds in 1 ml of buffer A (10 mM EDTA, 10 mM HEPES, 0.1 mM benzamidine, pH 7.4), using a Polytron PT 3000 (Kinematica, Luceme, Switzerland). Homogenates were centrifuged at 45,000× gmax for 15 min at 4° C. The pellets were resuspended in 1 ml of buffer B (1 mM EDTA, 10 mM HEPES, 0.1 mM benzamidine, pH 7.4) and recentrifuged at 45,000× gmax for 15 min at 4° C. The pellets were resuspended in 1 ml of buffer B and centrifuged at 10,000× gmax for 10 min at 4° C. The supernatants were recentrifuged at 45,000×gmax for 15 min at 4° C. […]\nFor competition binding studies, the prepared membranes were resuspended in buffer D (10 mM Tris.HCl, 154 mM NaCl, 0.1 mM ascorbic acid, pH 7.4) at 0° C. […] The membrane bound radioactivity was determined in a γ-scintillation counter. Competition binding curves were analyzed by nonlinear regression analysis using the XMGRACE programme (Linux software).\nDifferent concentrations of the prepared compound (1.0 pM-100 μM) were incubated with 40 pM [^125I]ET-1 and a fixed amount of mouse ventricular membrane preparation (10 μg) at 37° C. for 4 h. The membrane bound radioactivity was evaluated using a γ-scintillation counter and standardized on percentage of [^125I]ET-1. […]"}, "[9]": {"conditions": "MDA-MB-435, block (100 nmol PD 156707 10 minutes before), 1 h"}, "[10]": {"conditions": "MDA-MB-435, block (100 nmol PD 156707 10 minutes before), 3 h"}, "[11]": {"conditions": "MDA-MB-435, block (100 nmol PD 156707 10 minutes before), 5 h"}, "[12]": {"conditions": "MDA-MB-435, block (100 nmol PD 156707 10 minutes before), 24 h"}, "[13]": {"conditions": "MDA-MB-435, nativ, 24 h, 2 nmol"}}, "note": "Entries after “also recorded” stand apart in the source; their conditions may differ."}
{"compound": "CC[N+]1=C(/C=C/C=C/C=C2/N(CCCCCC(=O)NCCOCCOCCOCCOc3cc(CC4=C(c5ccc6c(c5)OCO6)C(=O)OC4(O)c4ccc(OC)cc4)cc(OC)c3OC)c3ccc4c(S(=O)(=O)O)cc(S(=O)(=O)O)cc4c3C2(C)C)C(C)(C)c2c1ccc1c(S(=O)(=O)O)cc(S(=O)(=O)O)cc21", "note": "(stereo not drawn) [ETAR-Cy 5.5]", "values": [{"measurement": "cellular fluorescence signal (fluorescence microscopy)", "setting": "[1]", "result": "high amounts of cellular fluorescence"}, {"measurement": "cellular fluorescence signal (fluorescence microscopy)", "setting": "[1]; listed as 9", "result": "specific visualization of the ETA receptor"}, {"measurement": "cellular fluorescence signal (fluorescence microscopy)", "setting": "[1]; listed as 17", "result": "allowed for visualisation of the ETA receptor; also recorded: only moderate cellular fluorescence"}, {"measurement": "cellular fluorescence signal (fluorescence microscopy)", "setting": "[1]; listed as targeted fluorochrome", "result": "strong fluorescence signal"}, {"measurement": "mean (FMT-data)", "setting": "[2]; MCF-7, block, 1 h", "result": 196.50}, {"measurement": "pmol (FMT-data)", "setting": "[2]; MCF-7, block, 1 h", "result": 224.00, "unit": "pmol"}, {"measurement": "mean (FMT-data)", "setting": "[2]; MCF-7, block, 3 h", "result": 66.50}, {"measurement": "pmol (FMT-data)", "setting": "[2]; MCF-7, block, 3 h", "result": 274.50, "unit": "pmol"}, {"measurement": "mean (FMT-data)", "setting": "[2]; MCF-7, block, 5 h", "result": 100.67}, {"measurement": "pmol (FMT-data)", "setting": "[2]; MCF-7, block, 5 h", "result": 201.67, "unit": "pmol"}, {"measurement": "mean (FMT-data)", "setting": "[2]; MCF-7, block, 24 h", "result": 125.50}, {"measurement": "pmol (FMT-data)", "setting": "[2]; MCF-7, block, 24 h", "result": 9.00, "unit": "pmol"}, {"measurement": "mean (FMT-data)", "setting": "[2]; MCF-7, nativ, 1 h", "result": 148.00}, {"measurement": "pmol (FMT-data)", "setting": "[2]; MCF-7, nativ, 1 h", "result": 599.00, "unit": "pmol"}, {"measurement": "mean (FMT-data)", "setting": "[2]; MCF-7, nativ, 3 h", "result": 79.00}, {"measurement": "pmol (FMT-data)", "setting": "[2]; MCF-7, nativ, 3 h", "result": 339.00, "unit": "pmol"}, {"measurement": "mean (FMT-data)", "setting": "[2]; MCF-7, nativ, 5 h", "result": 115.50}, {"measurement": "pmol (FMT-data)", "setting": "[2]; MCF-7, nativ, 5 h", "result": 473.00, "unit": "pmol"}, {"measurement": "mean (FMT-data)", "setting": "[2]; MCF-7, nativ, 24 h", "result": 207.67}, {"measurement": "pmol (FMT-data)", "setting": "[2]; MCF-7, nativ, 24 h", "result": 33.00, "unit": "pmol"}, {"measurement": "fluorescence signal of tumor xenografts by FRI and FMT", "setting": "[2]; MCF-7 xenografts, 2 nmol i.v.", "result": "high fluorescence signal yields"}, {"measurement": "cellular fluorescence signal (fluorescence microscopy)", "setting": "[3]", "result": "little to no cellular fluorescence"}, {"measurement": "cellular fluorescence signal (fluorescence microscopy)", "setting": "[3]; listed as 17", "result": "no accumulation of the ligand; also recorded: do not bind the tracer"}, {"measurement": "fluorescence signal of tumor xenografts by FRI and FMT", "setting": "[4]; MDA-MB 435 xenografts, 2 nmol i.v.", "result": "high fluorescence signal yields"}, {"measurement": "mean (FMT-data)", "setting": "[4]; [9]", "result": 253.57}, {"measurement": "pmol (FMT-data)", "setting": "[4]; [9]", "result": 22.14, "unit": "pmol"}, {"measurement": "mean (FMT-data)", "setting": "[4]; [10]", "result": 323.25}, {"measurement": "pmol (FMT-data)", "setting": "[4]; [10]", "result": 17.25, "unit": "pmol"}, {"measurement": "mean (FMT-data)", "setting": "[4]; [11]", "result": 343.78}, {"measurement": "pmol (FMT-data)", "setting": "[4]; [11]", "result": 19.67, "unit": "pmol"}, {"measurement": "mean (FMT-data)", "setting": "[4]; [12]", "result": 273.80}, {"measurement": "pmol (FMT-data)", "setting": "[4]; [12]", "result": 34.80, "unit": "pmol"}, {"measurement": "mean (FMT-data)", "setting": "[4]; MDA-MB-435, nativ, 1 h, 2 nmol", "result": 356.89}, {"measurement": "pmol (FMT-data)", "setting": "[4]; MDA-MB-435, nativ, 1 h, 2 nmol", "result": 40.56, "unit": "pmol"}, {"measurement": "mean (FMT-data)", "setting": "[4]; MDA-MB-435, nativ, 3 h, 2 nmol", "result": 326.33}, {"measurement": "pmol (FMT-data)", "setting": "[4]; MDA-MB-435, nativ, 3 h, 2 nmol", "result": 27.67, "unit": "pmol"}, {"measurement": "mean (FMT-data)", "setting": "[4]; MDA-MB-435, nativ, 5 h, 2 nmol", "result": 418.17}, {"measurement": "pmol (FMT-data)", "setting": "[4]; MDA-MB-435, nativ, 5 h, 2 nmol", "result": 55.50, "unit": "pmol"}, {"measurement": "mean (FMT-data)", "setting": "[4]; [13]", "result": 444.38}, {"measurement": "pmol (FMT-data)", "setting": "[4]; [13]", "result": 63.57, "unit": "pmol"}, {"measurement": "cellular fluorescence signal (fluorescence microscopy)", "setting": "[5]; listed as 17", "result": "higher fluorescence signal than human breast cancer cell line MCF-7; also recorded: highest cellular fluorescence"}]}
{"compound": "COc1ccc(C2(O)OC(=O)C(c3ccc4c(c3)OCO4)=C2Cc2cc(OC)c(OC)c(OC)c2)cc1", "note": "(stereo not drawn) [PD 156707, 3-benzo[1,3]dioxol-5-yl-5-hydroxy-5-(4-methoxyphenyl)-4-(3,4,5-trimethoxybenzyl)-5H-furan-2-one, reference compound]", "values": [{"measurement": "blocking of the binding/signal of the Cy 5.5 conjugate", "setting": "[1]; PD 156707 50 nmol (tenfold) or ETAR antibodies 1.3 μg", "result": "could be blocked; also recorded: Blocking of the signal was possible"}, {"measurement": "cell behaviour at higher concentrations", "setting": "[1]; conjugate and unlabelled antagonist up to 100 nmol", "result": "cells detached from the bottom of the flask"}, {"measurement": "IC50", "setting": "[6]", "result": 0.3, "unit": "nM"}, {"measurement": "myocardial signal of the fluorophore after pre-dosing", "setting": "[7]", "result": "significantly reduced"}, {"measurement": "tumor fluorescence of ETAR-Cy 5.5 after predosing", "setting": "[4]; predosing with unmodified ETAR antagonist", "result": "significant decrease of tumor fluorescence"}, {"measurement": "blocking of the binding/signal of conjugate 17", "setting": "[5]; HT-1080 cells (FIG. 4B), antibody 1.3 μg or tenfold excess PD 156707", "result": "Blocking of the signal was possible"}]}
{"compound": "Cy 5.5 [reference compound]", "values": [{"measurement": "cellular fluorescence signal (fluorescence microscopy)", "setting": "[1]", "result": "Negligible signals"}, {"measurement": "cellular fluorescence signal (fluorescence microscopy)", "setting": "[3]", "result": "Negligible signals"}, {"measurement": "cellular fluorescence signal (fluorescence microscopy)", "setting": "[5]", "result": "Negligible signals"}]}
{"compound": "[^125I]ET-1: radioiodinated endothelin-1 radioligand (PerkinElmer)", "values": [{"measurement": "Kd", "setting": "[8]", "result": "0.208 ± 0.002", "unit": "nM"}]}
